Measured values published in publication PMC5290327, “SC83288 is a clinical development candidate for the treatment of severe malaria” (Nature Communications, 2017).
Read-outs that look alike come from different tables or passages of the source.

Key:
[1] = PK study; type: in vivo, cynomolgus; conditions: for half-life: 2 mg/kg
Experimental: (§1) On the treatment day, all animals were weighed and the dosing volume was calculated for each individual animal according to its actual body weight. All animal were dosed once. Blood samples were taken at different time points and plasma was collected after centrifugation (10,000g, 10 min, 4 °C). Plasma samples were analysed by LC–MS/MS. […] All relevant observations were recorded. The PK studies in cynomolgus monkeys and beagle dogs were performed by the Laboratory of Pharmacology and Toxicology (LPT), Hamburg, and PK and toxicity studies in mice and rats were performed by the 4SC Discovery GmbH, Munich. PK parameters were obtained by a non-compartment analysis, using Kinetica 4.1 (Thermo Scientific).

[2] = test system: Dd2 trophozoites; assay: In vitro speed of action, clearance of trophozoites (Vial protocol); type: cell-based, Plasmodium falciparum; conditions: 500 nM
[3] = PK study; type: in vivo; conditions: dog i.v. 1.7 mg kg^−1; for half-life: dog
Experimental: as §1

[4] = Tolerability of i.v. bolus dose; type: in vivo, mouse; conditions: mice
Experimental: The maximal-tolerated i.v. bolus dose of SC83288 was at 30 mg kg^−1 body weight (extrapolated initial drug plasma concentration C0 of 65,600 ng ml^−1) and 15 mg kg^−1 body weight (C0 of 27,300 ng ml^−1) in rats and mice, respectively. Observed adverse effects included ataxia, respiratory symptoms and sleepiness. However, all treated animals fully recovered within 30 min after drug application. […] Increasing the dose to 45 mg kg^−1 body weight caused apnoea in rats. The no-observed-adverse-effect level and the no-observed-effect level in rats corresponded to a tested i.v. bolus dose of 22.5 mg kg^−1 body weight (C0 of 49,200 ng ml^−1) and 15 mg kg^−1 body weight (C0 of 32,800 ng ml^−1), respectively.
as §1, with “PK parameters were obtained by a non-compartment analysis, using Kinetica 4.1 (Thermo Scientific).” left out

[5] = PK study; type: in vivo, rat; conditions: rat i.v. 2 mg kg^−1; for half-life: rat, 2 mg/kg
Experimental: as §1

[6] = Allometric scaling, prediction of human PK
[7] = Measured pK; type: physicochemical
Experimental: SC81458 and SC83288 were soluble in water (890 and 940 μg ml^−1, respectively) and organic solvents. […] The compounds were stable in different physiological solutions, including artificial gastric juice, simulated intestinal fluid, phosphate-buffered saline and human plasma, when incubated for 6 h at 37 °C.

[8] = molecular target: T1, PIP5K1a (Homo sapiens, UniProt Q99755); assay: KINOMEscan; type: binding; conditions: read-out: Remaining enzyme activity
T1 construct: purchased Ambit (DiscoverX) KINOMEscan; Cerep
T1 sequence (Q99755 whole entry): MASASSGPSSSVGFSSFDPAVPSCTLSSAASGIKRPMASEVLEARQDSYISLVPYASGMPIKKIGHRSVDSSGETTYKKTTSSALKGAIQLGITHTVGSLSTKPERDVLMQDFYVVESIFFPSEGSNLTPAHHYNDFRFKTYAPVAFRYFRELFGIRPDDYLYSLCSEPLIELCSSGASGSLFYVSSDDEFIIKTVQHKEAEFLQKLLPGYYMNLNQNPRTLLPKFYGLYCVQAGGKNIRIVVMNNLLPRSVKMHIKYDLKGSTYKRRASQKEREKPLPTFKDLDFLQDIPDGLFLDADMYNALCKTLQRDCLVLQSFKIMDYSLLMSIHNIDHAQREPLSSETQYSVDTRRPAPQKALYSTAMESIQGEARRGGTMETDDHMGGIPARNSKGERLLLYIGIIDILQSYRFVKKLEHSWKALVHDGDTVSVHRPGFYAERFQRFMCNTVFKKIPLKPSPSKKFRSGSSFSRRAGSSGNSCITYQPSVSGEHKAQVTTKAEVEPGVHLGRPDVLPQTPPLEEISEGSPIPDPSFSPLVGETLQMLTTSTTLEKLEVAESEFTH
Procedure, shortened: (§2)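 Binding, not activity: the compound competes with an active-site directed ligand on beads for DNA-tagged human kinase. Quantitative PCR of the tag gives the kinase recovered. Single concentration, 10 μM SC81458.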

[9] = molecular target: T2, EGFR(L747-E749del, A750P) (Homo sapiens, UniProt P00533, A750P/DEL747-749); assay: KINOMEscan; type: binding; conditions: read-out: Remaining enzyme activity
T2 construct: purchased Ambit (DiscoverX) KINOMEscan; Cerep
T2 sequence (P00533 with tags, fused parts or gaps DEL747-749/A750P limits assumed): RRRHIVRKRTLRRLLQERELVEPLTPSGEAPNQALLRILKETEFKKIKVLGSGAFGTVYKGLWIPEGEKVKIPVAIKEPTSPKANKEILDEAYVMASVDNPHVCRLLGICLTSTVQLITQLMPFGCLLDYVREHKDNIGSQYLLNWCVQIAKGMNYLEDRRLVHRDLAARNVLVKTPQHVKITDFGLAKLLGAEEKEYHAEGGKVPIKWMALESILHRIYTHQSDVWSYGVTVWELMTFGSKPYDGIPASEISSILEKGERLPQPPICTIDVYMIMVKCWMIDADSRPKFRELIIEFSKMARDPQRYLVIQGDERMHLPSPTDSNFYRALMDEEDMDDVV
Procedure, shortened: as §2

[10] = cynomolgus monkey, plasma, iv, cynomolgus i.v. 2 mg kg^−1

Which half-life ([1]; cynomolgus monkey, plasma, iv, cynomolgus i.v. 2 mg kg^−1, read-out: t1/2 effective) does the source give for `COC(=O)N1CCN(C(=N)c2cccc(NC(=O)Nc3ccc(S(=O)(=O)NCc4ccc(S(N)(=O)=O)cc4)cc3)c2)CC1` [SC83288, methyl 4-(imino(3-(3-(4-(N-(4-sulfamoylbenzyl)sulfamoyl)phenyl)ureido)phenyl)methyl) piperazine-1-carboxylate] here?
Its half-life is 62 min.

And the half-life ([1]; cynomolgus monkey, plasma, iv, cynomolgus i.v. 2 mg kg^−1, read-out: t1/2 initial)?
Its half-life is 16 min.

And the half-life ([1]; cynomolgus monkey, plasma, iv, cynomolgus i.v. 2 mg kg^−1, read-out: t1/2 terminal)?
The half-life was 320 min.

And the AUC(0-inf) [1, 10]?
Its AUC(0-inf) is 4250 ng·h/mL.

What about the C0 [1, 10] of the same molecule?
Its C0 is 7340 ng/mL.

What about the Cmax [1, 10] of the same molecule?
Its Cmax is 6570 ng/mL.

What about the Tmax [1, 10] of the same molecule?
The Tmax was 5 min.

What about the clearance [1, 10] of the same molecule?
Its clearance is 7.83 mL/min/kg.

What about the MRT last ([1]; cynomolgus monkey, plasma, iv, cynomolgus i.v. 2 mg kg^−1, read-out: MRT0-t) of the same molecule?
Its MRT last is 90 min.

And the “C0 as multiple of the free MPC” value ([1]; cynomolgus, i.v. 2 mg kg^−1)?
Its value is roughly 17 times.

What about the VC ([1]; cynomolgus, i.v. 2 mg kg^−1) of the same molecule?
Its VC is 0.273 L/kg.

What about the “exposure time to clear a 0.5% parasitemia” value [2] of the same molecule?
Its value is no more than 3 ± 1 h.

What about the half-life ([3]; beagle, plasma, iv, read-out: t1/2 effective) of the same molecule?
The half-life was 35 min.

And the half-life ([3]; beagle, plasma, iv, read-out: t1/2 initial)?
The half-life was 12 min.

What about the half-life ([3]; beagle, plasma, iv, read-out: t1/2 terminal) of the same molecule?
Its half-life is 90 min.

And the AUC(0-inf) ([3]; beagle, plasma, iv)?
Its AUC(0-inf) is 2260 ng·h/mL.

What about the C0 ([3]; beagle, plasma, iv) of the same molecule?
Its C0 is 5580 ng/mL.

And the Cmax ([3]; beagle, plasma, iv)?
The Cmax was 4560 ng/mL.

What about the Tmax ([3]; beagle, plasma, iv) of the same molecule?
Its Tmax is 5 min.

What about the clearance ([3]; beagle, plasma, iv) of the same molecule?
The clearance was 14.7 mL/min/kg.

And the MRT last ([3]; beagle, plasma, iv, read-out: MRT0-t)?
The MRT last was 50.4 min.

And the VC [3]?
The VC was 0.359 L/kg.

What about the “maximal-tolerated i.v. bolus dose” value [4] of the same molecule?
Its value is 15 mg kg^−1 body weight.

And the C0 ([4]; mouse, plasma, iv, 15 mg kg^−1 i.v. bolus, read-out: extrapolated C0)?
Its C0 is 27300 ng/mL.

What about the AUC(0-inf) ([5]; plasma, iv) of the same molecule?
Its AUC(0-inf) is 1420 ng·h/mL.

And the C0 ([5]; plasma, iv)?
Its C0 is 4380 ng/mL.

What about the Cmax ([5]; plasma, iv) of the same molecule?
Its Cmax is 3280 ng/mL.

What about the Tmax ([5]; plasma, iv) of the same molecule?
Its Tmax is 5 min.

And the clearance ([5]; plasma, iv)?
Its clearance is 23.5 mL/min/kg.

What about the MRT last ([5]; plasma, iv, read-out: MRT0-t) of the same molecule?
Its MRT last is 75 min.

What about the VC [5] of the same molecule?
Its VC is 0.457 L/kg.

And the half-life ([5]; plasma, iv, read-out: t1/2 effective)?
Its half-life is 52 min.

And the half-life ([5]; plasma, iv, read-out: t1/2 initial)?
Its half-life is 9 min.

What about the half-life ([5]; plasma, iv, read-out: t1/2 terminal) of the same molecule?
Its half-life is 625 min.

What about the “predicted human plasma clearance” value ([6]; allometric scaling, rule of exponents) of the same molecule?
The value was 14.7 L/h.

What about the “total plasma clearance rate (higher estimate)” value ([6]; human) of the same molecule?
Its value is 15,180 ml h^−1.

And the “total plasma concentration for […] the free MPC” value ([6]; human projection, assuming 78% plasma protein binding)?
Its value is 860 ng/mL.

What about the pK [7] of the same molecule?
Its pK is 9.82.

With `CCCCN1CCN(C(=N)c2cccc(NC(=O)Nc3ccc(S(=O)(=O)NCc4ccc(S(N)(=O)=O)cc4)cc3)c2)CC1` [SC81458, 4-(3-(3-((4-butylpiperazin-1-yl)(imino)methyl)phenyl)ureido)-N-(4-sulfamoylbenzyl) benzenesulfonamide] as the molecule, how does the remaining binding at 10 µM [8] read?
The remaining binding at 10 µM was 100%.

What about the remaining binding at 10 µM [9] of the same molecule?
The remaining binding at 10 µM was 86%.
